Reference: publication PMC4471902, “Block of NMDA receptor channels by endogenous neurosteroids: implications for the agonist induced conformational states of the channel vestibule” (Scientific Reports, 2015)
Structures can show the parent of a compound that is named as a salt.

Assay: Steroid concentration in the cytoplasmic membrane (erythrocyte membrane ghosts, HPLC-MS)
Type: physicochemical, rat
Experimental: All animal manipulations were conducted in accordance with the Animal Protection Code of the Czech Republic and corresponding directives of the European Community Council (2010/63/EC). Experiments were approved by the Animal Care and Use Committee of the Institute of Physiology of the Academy of Sciences of the Czech Republic. Blood was collected from one adult Wistar rat, heparinized, and spun down at 1,000 g for 10 min. Cells were washed once with PBS, briefly spun down and the pellet resuspended in a minimum amount of ECS. Cells were counted and 200 μl aliquots (~3*10^9 cells) were taken for the experiment. Cell membranes were prepared by 30 min erythrocyte lysis in distilled water followed by centrifugation at 25,000 g for 10 min and resuspension in 200 μl of ECS. Cell membranes were incubated for 2 min with PA-S solution in ECS at the final volume of 500 μl, followed by a spin down at 20,000 g for 2 min. Supernatants were taken for liquid chromatography-mass spectrometry analysis (HPLC-MS). Solution of PA-S without membranes served as a control. […]
PA-S concentration was assessed in ECS to which steroid was added from its 20 mM stock solution ([PA-S]ECS) and in the supernatant of a solution containing er ythroc yte membranes ([PA-S]EC S+M) (see Methods). The concentration of steroid in the membrane ([PA-S]M) was calculated from the difference of [PA-S] in the control solution ([PA-S] EC S) and that in the supernatant containin g m embranes ([PA-S]EC S+M) accordin g to [PA-S]M = ([PA-S]ECS - [PA-S]EC S+M) · Vsolu tion /Vmembrane (where V denotes volume). Data points were fitted to the linear equation of the following form y = 38.8 * x; The partition coeffici ent for P A-S was calculated […]
7.4) determined using the online program CHEMICALIZE (http://www.chemicalize.org/).
Data points represent the mean of two independent measurements. The values of the partition coefficient (log D) of PA-S in the erythrocyte cytoplasmic membrane was calculated assuming 136 μm2 as the mean surface area of a rat erythroc yte and 4 nm as the mean membrane thickness. […]

CC(=O)[C@H]1CC[C@H]2[C@@H]3CC[C@@H]4C[C@H](OS(=O)(=O)O)CC[C@]4(C)[C@H]3CC[C@]12C [PA-S, 20-oxo-5β-pregnan-3α-yl sulfate]
equilibrium surface density S (calculated for the PA-S IC50 value of 55.7 µM): 4.32 10−9 M m −2
flux Jout of steroid from the membrane into the aqueous phase (product of [PA-S]membrane and koff): at least 4.3 μM s^−1 m^−2
slope of linear fit of [PA-S]M versus aqueous concentration (y = slope * x): 38.8
